Holding throughout (assay): KINOMEscan
Assay type in all cases: binding

Experiment [1] addresses T1, MLCK (Homo sapiens, UniProt Q32MK0).
T1 construct: purchased Eurofins DiscoverX KINOMEscan
T1 sequence (Q32MK0 1-819): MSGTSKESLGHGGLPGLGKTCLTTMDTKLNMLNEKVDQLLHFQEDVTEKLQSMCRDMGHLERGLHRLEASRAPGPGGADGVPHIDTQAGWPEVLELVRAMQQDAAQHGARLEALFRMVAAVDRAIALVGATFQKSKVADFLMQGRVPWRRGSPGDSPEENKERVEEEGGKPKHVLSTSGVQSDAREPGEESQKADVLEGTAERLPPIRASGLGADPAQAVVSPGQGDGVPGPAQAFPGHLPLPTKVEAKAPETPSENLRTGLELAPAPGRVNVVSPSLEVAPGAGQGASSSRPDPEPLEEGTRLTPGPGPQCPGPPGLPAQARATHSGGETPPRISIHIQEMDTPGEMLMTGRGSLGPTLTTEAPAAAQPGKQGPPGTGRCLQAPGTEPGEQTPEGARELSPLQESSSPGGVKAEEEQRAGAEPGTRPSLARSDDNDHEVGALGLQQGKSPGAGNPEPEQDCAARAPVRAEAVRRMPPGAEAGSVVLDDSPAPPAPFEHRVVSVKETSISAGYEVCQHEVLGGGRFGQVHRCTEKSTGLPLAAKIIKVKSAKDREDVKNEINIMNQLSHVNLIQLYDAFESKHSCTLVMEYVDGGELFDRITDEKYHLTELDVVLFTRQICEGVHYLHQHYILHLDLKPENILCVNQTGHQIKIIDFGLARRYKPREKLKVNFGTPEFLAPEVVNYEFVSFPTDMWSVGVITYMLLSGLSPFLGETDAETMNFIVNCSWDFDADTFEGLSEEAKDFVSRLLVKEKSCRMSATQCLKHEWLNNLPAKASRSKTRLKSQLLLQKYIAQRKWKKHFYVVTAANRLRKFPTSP
To be noted: for remaining binding at 1 µM: read-out: % control activity remaining.

Experiment [2] addresses T2, PRKCD (Homo sapiens, UniProt Q05655).
T2 construct: purchased Eurofins DiscoverX KINOMEscan
To be noted: read-out: % control activity remaining.

Experiment [3] deals with T3, DRAK2 (Homo sapiens, UniProt O94768).
T3 construct: purchased Eurofins DiscoverX KINOMEscan
T3 sequence (O94768 1-372): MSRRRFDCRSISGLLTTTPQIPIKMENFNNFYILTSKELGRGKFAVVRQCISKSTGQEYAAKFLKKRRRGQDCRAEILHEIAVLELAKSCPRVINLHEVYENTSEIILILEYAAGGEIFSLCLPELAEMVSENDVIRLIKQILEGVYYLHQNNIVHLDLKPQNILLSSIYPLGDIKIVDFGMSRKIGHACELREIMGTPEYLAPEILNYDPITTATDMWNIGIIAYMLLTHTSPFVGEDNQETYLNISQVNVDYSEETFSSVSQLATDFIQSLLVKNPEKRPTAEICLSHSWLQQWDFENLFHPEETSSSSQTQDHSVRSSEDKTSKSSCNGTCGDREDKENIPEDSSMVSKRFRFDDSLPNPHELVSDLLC
To be noted: read-out: % control activity remaining.

For experiment [4], the target named is T4, JNK1 (Homo sapiens, UniProt P45983).
T4 construct: purchased Eurofins DiscoverX KINOMEscan
The following applies: read-out: % control activity remaining.

The target of experiment [5] is T5, OSR1 (Homo sapiens, UniProt O95747).
T5 construct: purchased Eurofins DiscoverX KINOMEscan
To be noted: read-out: % control activity remaining.

In experiment [6] the target is T6, MKNK2 (Homo sapiens, UniProt Q9HBH9).
T6 construct: purchased Eurofins DiscoverX KINOMEscan
The following applies: read-out: % control activity remaining.

For experiment [7], the target named is T7, CLK3 (Homo sapiens, UniProt P49761).
T7 construct: purchased Eurofins DiscoverX KINOMEscan
The following applies: read-out: % control activity remaining.

The target in experiment [8] is T8, ABL2 (Homo sapiens, UniProt P42684).
T8 construct: purchased Eurofins DiscoverX KINOMEscan
The following applies: read-out: % control activity remaining.

Experiment [9] addresses T9, HASPIN (Homo sapiens, UniProt Q8TF76).
T9 construct: purchased Eurofins DiscoverX KINOMEscan
T9 sequence (Q8TF76 1-798): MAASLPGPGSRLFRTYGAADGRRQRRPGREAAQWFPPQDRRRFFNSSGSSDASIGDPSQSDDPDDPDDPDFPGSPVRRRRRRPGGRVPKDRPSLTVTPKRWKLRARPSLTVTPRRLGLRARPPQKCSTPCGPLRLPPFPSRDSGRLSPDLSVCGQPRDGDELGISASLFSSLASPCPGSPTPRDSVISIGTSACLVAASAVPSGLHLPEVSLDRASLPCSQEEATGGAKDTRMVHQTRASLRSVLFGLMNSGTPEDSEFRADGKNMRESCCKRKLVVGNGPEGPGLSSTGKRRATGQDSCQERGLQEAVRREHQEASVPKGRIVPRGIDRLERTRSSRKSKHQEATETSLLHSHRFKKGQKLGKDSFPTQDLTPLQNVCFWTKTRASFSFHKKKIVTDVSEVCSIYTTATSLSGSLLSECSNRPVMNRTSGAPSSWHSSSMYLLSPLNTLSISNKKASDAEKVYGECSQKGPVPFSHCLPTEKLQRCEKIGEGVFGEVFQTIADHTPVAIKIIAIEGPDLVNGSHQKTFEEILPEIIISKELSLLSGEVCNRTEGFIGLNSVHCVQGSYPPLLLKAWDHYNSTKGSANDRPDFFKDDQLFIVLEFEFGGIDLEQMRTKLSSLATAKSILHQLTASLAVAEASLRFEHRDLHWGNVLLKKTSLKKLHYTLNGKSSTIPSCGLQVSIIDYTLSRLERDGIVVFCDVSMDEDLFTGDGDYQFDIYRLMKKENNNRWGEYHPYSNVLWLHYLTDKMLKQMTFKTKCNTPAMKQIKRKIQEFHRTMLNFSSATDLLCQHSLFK
To be noted: read-out: % control activity remaining.

The target in experiment [10] is T10, ACVR1B (Homo sapiens, UniProt P36896).
T10 construct: purchased Eurofins DiscoverX KINOMEscan
T10 sequence (P36896 24-505): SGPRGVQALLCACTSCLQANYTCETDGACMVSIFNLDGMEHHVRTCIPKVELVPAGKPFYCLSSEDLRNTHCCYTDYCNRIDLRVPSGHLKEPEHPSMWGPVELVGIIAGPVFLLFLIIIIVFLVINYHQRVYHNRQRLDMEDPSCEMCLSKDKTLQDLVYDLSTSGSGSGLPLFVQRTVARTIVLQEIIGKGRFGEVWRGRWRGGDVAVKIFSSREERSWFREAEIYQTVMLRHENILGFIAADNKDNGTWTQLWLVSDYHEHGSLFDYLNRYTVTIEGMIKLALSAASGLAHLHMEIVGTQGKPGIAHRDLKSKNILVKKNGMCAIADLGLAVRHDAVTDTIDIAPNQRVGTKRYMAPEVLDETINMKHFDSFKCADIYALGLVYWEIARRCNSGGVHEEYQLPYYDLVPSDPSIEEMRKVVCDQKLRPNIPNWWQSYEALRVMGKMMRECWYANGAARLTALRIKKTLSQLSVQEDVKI
The following applies: read-out: % control activity remaining.

The target in experiment [11] is T11, CDK3 (Homo sapiens, UniProt Q00526).
T11 construct: purchased Eurofins DiscoverX KINOMEscan
The following applies: read-out: % control activity remaining.

Each structure is given as a SMILES string.

T6 sequence (Q9HBH9 whole entry): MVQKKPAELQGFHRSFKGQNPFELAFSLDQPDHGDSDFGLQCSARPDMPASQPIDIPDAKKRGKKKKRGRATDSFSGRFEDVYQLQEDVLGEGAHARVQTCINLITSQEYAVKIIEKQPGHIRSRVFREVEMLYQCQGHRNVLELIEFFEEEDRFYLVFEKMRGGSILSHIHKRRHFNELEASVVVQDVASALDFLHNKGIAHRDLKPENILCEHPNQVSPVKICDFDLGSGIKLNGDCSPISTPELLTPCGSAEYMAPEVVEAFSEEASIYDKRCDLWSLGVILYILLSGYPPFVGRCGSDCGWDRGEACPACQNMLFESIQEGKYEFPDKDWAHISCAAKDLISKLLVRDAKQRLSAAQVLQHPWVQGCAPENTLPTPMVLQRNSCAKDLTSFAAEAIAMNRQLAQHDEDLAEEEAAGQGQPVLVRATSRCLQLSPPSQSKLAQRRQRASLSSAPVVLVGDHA
T4 sequence (P45983 whole entry): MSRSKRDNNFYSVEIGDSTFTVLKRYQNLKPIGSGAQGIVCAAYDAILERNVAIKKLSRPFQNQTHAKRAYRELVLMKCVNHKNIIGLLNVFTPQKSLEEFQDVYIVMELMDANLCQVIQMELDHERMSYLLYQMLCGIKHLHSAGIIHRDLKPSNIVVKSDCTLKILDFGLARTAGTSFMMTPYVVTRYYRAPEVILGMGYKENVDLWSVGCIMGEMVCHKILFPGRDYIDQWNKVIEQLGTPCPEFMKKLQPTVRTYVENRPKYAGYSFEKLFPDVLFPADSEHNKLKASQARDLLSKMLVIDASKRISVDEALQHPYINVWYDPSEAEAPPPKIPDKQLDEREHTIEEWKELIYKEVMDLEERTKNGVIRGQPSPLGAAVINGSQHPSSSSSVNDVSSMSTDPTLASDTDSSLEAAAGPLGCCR
T2 sequence (Q05655 whole entry): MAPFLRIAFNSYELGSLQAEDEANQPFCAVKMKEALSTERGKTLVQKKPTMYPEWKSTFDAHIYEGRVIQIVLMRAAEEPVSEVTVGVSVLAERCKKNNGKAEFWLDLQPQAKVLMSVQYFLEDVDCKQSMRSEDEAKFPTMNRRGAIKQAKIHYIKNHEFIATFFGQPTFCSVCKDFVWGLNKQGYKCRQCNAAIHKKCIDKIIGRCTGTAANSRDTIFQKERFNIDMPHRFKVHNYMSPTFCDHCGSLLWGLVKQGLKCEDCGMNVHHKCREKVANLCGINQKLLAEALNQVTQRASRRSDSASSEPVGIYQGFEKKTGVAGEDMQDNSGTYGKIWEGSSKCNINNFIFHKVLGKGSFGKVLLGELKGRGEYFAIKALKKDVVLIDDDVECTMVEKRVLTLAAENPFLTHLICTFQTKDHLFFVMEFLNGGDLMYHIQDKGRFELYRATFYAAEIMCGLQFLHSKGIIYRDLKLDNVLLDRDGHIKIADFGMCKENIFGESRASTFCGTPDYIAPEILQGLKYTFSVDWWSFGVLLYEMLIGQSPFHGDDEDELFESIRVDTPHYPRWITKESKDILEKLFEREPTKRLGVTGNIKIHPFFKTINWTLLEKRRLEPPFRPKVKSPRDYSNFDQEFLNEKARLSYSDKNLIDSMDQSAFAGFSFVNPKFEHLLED
T7 sequence (P49761 whole entry): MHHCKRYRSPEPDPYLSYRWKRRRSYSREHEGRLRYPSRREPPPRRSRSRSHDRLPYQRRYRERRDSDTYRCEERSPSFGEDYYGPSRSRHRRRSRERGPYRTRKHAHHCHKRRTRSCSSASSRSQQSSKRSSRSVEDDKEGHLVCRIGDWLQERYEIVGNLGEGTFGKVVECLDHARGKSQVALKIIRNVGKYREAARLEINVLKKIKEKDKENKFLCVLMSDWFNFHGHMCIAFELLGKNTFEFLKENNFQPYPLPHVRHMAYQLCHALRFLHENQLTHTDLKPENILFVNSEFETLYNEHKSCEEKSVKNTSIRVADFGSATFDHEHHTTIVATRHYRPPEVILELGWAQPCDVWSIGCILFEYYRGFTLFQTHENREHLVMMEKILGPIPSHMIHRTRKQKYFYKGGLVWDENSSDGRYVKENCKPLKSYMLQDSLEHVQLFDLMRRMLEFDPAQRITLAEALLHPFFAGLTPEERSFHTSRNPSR
T11 sequence (Q00526 whole entry): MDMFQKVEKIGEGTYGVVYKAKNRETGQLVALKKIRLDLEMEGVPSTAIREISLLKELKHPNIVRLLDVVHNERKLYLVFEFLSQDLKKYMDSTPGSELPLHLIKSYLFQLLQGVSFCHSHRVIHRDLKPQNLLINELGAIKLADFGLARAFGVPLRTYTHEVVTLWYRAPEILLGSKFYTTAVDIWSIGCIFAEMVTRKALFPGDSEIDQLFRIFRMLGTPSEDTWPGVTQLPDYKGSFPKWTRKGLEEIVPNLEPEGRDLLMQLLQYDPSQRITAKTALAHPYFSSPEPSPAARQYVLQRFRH
T8 sequence (P42684 whole entry): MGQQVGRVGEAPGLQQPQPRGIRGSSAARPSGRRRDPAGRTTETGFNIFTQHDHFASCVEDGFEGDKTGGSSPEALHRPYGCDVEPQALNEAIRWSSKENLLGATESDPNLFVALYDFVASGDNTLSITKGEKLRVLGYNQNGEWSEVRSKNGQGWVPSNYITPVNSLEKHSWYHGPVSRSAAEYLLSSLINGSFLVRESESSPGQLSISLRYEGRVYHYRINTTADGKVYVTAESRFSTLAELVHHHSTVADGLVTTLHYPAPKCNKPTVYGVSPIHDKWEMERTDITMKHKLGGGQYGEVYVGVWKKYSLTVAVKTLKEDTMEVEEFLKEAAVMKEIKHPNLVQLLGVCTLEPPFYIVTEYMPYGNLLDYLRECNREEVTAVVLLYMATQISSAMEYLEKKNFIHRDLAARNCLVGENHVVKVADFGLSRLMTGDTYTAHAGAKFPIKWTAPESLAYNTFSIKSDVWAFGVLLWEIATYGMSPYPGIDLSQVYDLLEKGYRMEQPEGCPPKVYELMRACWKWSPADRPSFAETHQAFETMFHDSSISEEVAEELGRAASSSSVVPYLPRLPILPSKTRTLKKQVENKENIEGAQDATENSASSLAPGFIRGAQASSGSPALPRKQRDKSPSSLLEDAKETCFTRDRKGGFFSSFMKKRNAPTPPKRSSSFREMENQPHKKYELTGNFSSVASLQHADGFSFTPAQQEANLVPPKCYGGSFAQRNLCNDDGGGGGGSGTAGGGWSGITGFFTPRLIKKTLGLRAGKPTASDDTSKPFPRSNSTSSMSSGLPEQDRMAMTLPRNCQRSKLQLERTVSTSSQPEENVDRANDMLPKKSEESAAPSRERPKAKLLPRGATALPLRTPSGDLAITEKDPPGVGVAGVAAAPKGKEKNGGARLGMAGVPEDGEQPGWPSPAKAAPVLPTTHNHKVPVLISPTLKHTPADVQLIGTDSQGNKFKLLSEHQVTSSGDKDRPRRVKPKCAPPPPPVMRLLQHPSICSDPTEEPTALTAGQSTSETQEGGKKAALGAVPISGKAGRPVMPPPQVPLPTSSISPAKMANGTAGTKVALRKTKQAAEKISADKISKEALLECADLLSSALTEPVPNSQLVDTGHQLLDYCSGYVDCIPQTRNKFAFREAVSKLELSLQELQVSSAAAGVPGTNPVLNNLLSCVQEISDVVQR
T5 sequence (O95747 whole entry): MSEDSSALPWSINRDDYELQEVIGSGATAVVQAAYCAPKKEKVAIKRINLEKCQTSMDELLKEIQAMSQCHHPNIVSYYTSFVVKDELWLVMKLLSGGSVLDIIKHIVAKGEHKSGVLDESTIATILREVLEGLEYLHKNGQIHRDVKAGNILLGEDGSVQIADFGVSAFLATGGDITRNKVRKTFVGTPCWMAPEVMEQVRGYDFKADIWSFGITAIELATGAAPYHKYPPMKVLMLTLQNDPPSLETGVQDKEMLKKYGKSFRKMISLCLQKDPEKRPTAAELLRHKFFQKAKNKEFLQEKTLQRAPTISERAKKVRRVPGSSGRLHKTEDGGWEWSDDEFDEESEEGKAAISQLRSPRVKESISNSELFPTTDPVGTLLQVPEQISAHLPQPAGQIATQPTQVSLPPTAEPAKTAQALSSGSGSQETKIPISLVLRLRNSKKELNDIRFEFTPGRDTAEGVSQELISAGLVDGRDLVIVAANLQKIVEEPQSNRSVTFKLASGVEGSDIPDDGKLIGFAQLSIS

For `Clc1cc(NCC2CC2)c2ncc(-c3ccc4[nH]ncc4c3)n2n1` [compound 2, 6-Chloro-N-(cyclopropylmethyl)-3-(1H-indazol-5-yl)imidazo[1,2-b]pyridazin-8-amine], the remaining binding at 1 µM stood at 80% in experiment [1]; 93% in experiment [2]; 93% in experiment [3]; 91% in experiment [4]; 79% in experiment [5]; 80% in experiment [6]. The remaining binding at 1 µM in [7] was found to be 70%; in experiment [8], 100%; in experiment [9], 21%; in experiment [10], 89%; in [11], 95%.

As to `O=C(CN1CCOCC1)N[C@H]1CC[C@H](Nc2cc(Cl)nn3c(-c4ccc5[nH]ncc5c4)cnc23)CC1` [compound 26], the remaining binding at 1 µM came to 6.6% in experiment [1]; 90% in experiment [2]; 61% in experiment [3]; 83% in experiment [4]; 99% in experiment [5]; 67% in experiment [6]. Further, the remaining binding at 1 µM in experiment [7] was determined as 52%; in experiment [8], 56%; in [9] it was 22%; in experiment [10], 91%; in experiment [11], 90%. Also, the inhibition at 1 µM in experiment [1] (read-out: Probe binding inhibited) is greater than 90%.

Regarding `CN1CCC(CNc2cc(Cl)nn3c(-c4cc5nc(Nc6ccccc6)[nH]c5cc4F)cnc23)CC1` [compound 31, 6-Chloro-3-(6-fluoro-2-(phenylamino)-1H-benzo[d]imidazol-5-yl)-N-((1-methylpiperidin-4-yl)methyl)imidazo[1,2-b]pyridazin-8-amine], the remaining binding at 1 µM was determined as 89% in experiment [1]; 62% in experiment [2]; 92% in experiment [3]; 67% in experiment [4]; 100% in [5]; 74% in experiment [6]. Also, the remaining binding at 1 µM in [7] stood at 100%; in experiment [8] it was 92%; in experiment [9], 66%; in [10] it was 100%; in experiment [11] it was 97%.

Values taken from publication PMC6437697 (Journal of Medicinal Chemistry, 2019).
